Patent US5268282A, “Cyclic FR-900520 microbial biotransformation agent” (Merck & Co., Inc., priority 1992, dated 1993)
Entries after “also recorded” stand apart in the source; their conditions may differ. Blank lines part the entries; values can stand above or below the compound they belong to.

Key:
[1] = Solubility (physical characteristics); type: physicochemical; details: methanol
[2] = system: splenic T-cells (mouse T lymphocytes); assay: T-cell proliferation assay (ionomycin + PMA induced T-cell stimulation, tritiated thymidine uptake); type: cell-based, mouse (C57Bl/6)
Description: The principle of this assay is to measure the proliferation of mouse T lymphocytes stimulated with the combination of ionomycin plus PMA.
Cells were pelleted by centrifugation at 1500 rpm for 8 minutes. Contaminating red cells were removed by treating the pellet with ammonium chloride lysing buffer (GIBCO) for 2 minutes at 4° C. Cold medium was added and cells were again centrifuged at 1500 rpm for 8 minutes. T lymphocytes were then isolated by separation of the cell suspension on nylon wool columns as follows: Nylon wool columns were prepared by packing approximately 4 grams of washed and dried nylon wool into 20 ml plastic syringes. The columns were sterilized by autoclaving at 250° F. for 30 minutes. Nylon wool columns were wetted with warm (37° C.) culture medium and rinsed with the same medium. Washed spleen cells resuspended in warm medium were slowly applied to the nylon wool. The columns were then incubated in an upright position at 37° C. for 1 hour. Non-adherent T lymphocytes were eluted from the columns with warm culture medium and the cell suspensions were spun as above.
The cell suspension was immediately distributed into 96 well flat-bottom microculture plates (Costar) at 200 μl/well. […] Radioactivity of filter discs corresponding to individual wells was measured by standard liquid scintillation counting methods (Betacounter). Mean counts per minute of replicate wells were calculated and the results expressed as percent inhibition of tritiated thymidine uptake (proliferation) as follows: [formula]

[3] = immunosuppressant; EPO Publication No. 0184162; cited from earlier work

Solubility [1]: Solubility in methanol
Compound: CC[C@@H]1C=C2COC1(O)C[C@H](O)[C@@H](C)[C@@H](/C(C)=C/[C@@H]1CC[C@@H](O)[C@H](OC)C1)OC(=O)[C@@H]1CCCCN1C(=O)C(=O)[C@]1(O)O[C@H]([C@@H](OC)C[C@@H](C)C2)[C@@H](OC)C[C@H]1C [Compound I]
Inhibition of T-cell proliferation upon addition of IL2 ([2]; 50 units/ml recombinant IL2 added at the initiation of culture): reversed
IC50 ([2]; Mus musculus, T-cell, based on a series of 5 additional experiments, read-out: IC50, generally in the range of): 1.57 to 5.2 ng/mL
immunosuppressant activity (inhibition of T-cell activation / T-cell proliferation assay) ([2]; result in words): positive inhibition of T-cell activation; also recorded: positive immunosuppressive activity

Compound: C=CC[C@@H]1/C=C(\C)C[C@H](C)C[C@H](OC)[C@H]2O[C@@](O)(C(=O)C(=O)N3CCCC[C@H]3C(=O)O[C@H](/C(C)=C/[C@@H]3CC[C@@H](O)[C@H](OC)C3)[C@H](C)[C@@H](O)CC1=O)[C@H](C)C[C@@H]2OC [FK-506]
times more effective than cyclosporin (reputed) [3]: 100 times

Compound: C=CCC1C=C(C)CC(C)CC(OC)C2OC(O)(C(=O)C(=O)N3CCCCC3C(=O)OC(C(C)=CC3CCC(O)C(OC)C3)C(C)C(O)CC1=O)C(C)CC2OC (stereo not drawn) [FR 900506, reference compound]
inhibition at 0.01 µg/mL ([2]; Mus musculus, T-cell, read-out: inhibition by the standard): 99%
